Results: US12240838B2, “Inhibiting agents for Bruton's tyrosine kinase” (BIOGEN MA INC., priority 2019, dated 2025)

Experiments:
BTK [1] = biological target: T1, BTK (Homo sapiens (Human), UniProt Q06187); assay: In Vitro BTK Kinase Assay: BTK-POLYGAT-LS ASSAY; type: biochemical; conditions: ATP 10 μM, polyGAT 100 nM, BTK 0.25 nM, 30 minutes
Summary of the method: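 BTK (0.25 nM final) with 10 μM ATP and 100 nM polyGAT in pH 7.5 Tris buffer with MgCl2, DTT, Triton X-100 and casein; compound titrated 4-fold. Reaction 30 min, stopped with EDTA. Phosphorylation detected by TR-FRET with Tb-PY20 antibody after 45 min at room temperature; IC50 reported.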

BTK [2] = biological target: T1, BTK; assay: In Vitro PD Assay in Human Whole Blood (pBTK assay); type: cell-based; conditions: 37° C. for 30 min, 50% inhibition of ECL signal
Summary of the method: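 Phospho-BTK was measured by total-BTK capture and phosphotyrosine detection in lysates of human heparinized whole blood. Vehicle samples lysed with or without phosphatase inhibitors defined the high and low controls.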

T1 sequence (Q06187 whole entry): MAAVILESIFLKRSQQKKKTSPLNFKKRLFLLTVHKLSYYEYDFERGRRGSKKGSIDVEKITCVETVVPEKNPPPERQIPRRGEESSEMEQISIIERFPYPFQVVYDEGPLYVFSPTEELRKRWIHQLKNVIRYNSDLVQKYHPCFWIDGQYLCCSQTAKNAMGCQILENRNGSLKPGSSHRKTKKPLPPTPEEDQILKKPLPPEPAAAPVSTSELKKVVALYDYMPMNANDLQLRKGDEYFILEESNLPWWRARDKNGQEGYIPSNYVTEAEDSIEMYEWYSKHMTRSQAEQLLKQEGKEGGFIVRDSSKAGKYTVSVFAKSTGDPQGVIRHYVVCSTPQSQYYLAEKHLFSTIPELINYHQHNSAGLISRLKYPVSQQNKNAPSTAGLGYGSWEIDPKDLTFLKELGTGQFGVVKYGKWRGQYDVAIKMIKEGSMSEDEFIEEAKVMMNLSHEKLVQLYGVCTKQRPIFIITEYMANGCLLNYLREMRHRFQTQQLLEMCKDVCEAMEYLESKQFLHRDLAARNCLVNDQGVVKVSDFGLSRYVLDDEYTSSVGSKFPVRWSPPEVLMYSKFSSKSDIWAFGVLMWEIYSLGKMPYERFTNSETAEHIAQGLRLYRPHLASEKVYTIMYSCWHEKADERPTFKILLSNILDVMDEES

Structure (SMILES)	IC50 (BTK [1])	IC50 (BTK [2])
CC(C)(C)c1nc(C(=O)NCc2ccc(-c3ccnc(NC(=O)C4CC4)c3)cc2C2CC2)no1 [Compound 77, 5-(tert-butyl)-N-(4-(2-(cyclopropanecarboxamido)pyridin-4-yl)-2-cyclopropylbenzyl)-1,2,4-oxadiazole-3-carboxamide]	≤ 1 nM	100 to 500 nM
CC(C)(C)c1noc(C(=O)N[C@@H]2CCCCc3cc(-c4ccnc(NC(=O)[C@@H]5CC56CCC6)c4)ccc32)n1 [Compound 42, 3-(tert-butyl)-N-((R)-2-(2-((R)-spiro[2.3]hexane-1-carboxamido)pyridin-4-yl)-6,7,8,9-tetrahydro-5H-benzo[7]annulen-5-yl)-1,2,4-oxadiazole-5-carboxamide]	≤ 1 nM	500 to 10000 nM
C[C@@H](NC(=O)c1nc(C(C)(C)C)no1)c1ccc(-c2ccnc(NC(=O)C3CC3)c2)cc1C(F)(F)F [Compound 79, (R)-3-(tert-butyl)-N-(1-(4-(2-(cyclopropanecarboxamido)pyridin-4-yl)-2-(trifluoromethyl)phenyl)ethyl)-1,2,4-oxadiazole-5-carboxamide]	≤ 1 nM	100 to 500 nM
Cc1c(-c2ccnc(NC(=O)C3CC3)c2)ccc(CNC(=O)c2noc(C(C)(C)C)n2)c1F [Compound 101, 5-(tert-butyl)-N-(4-(2-(cyclopropanecarboxamido)pyridin-4-yl)-2-fluoro-3-methylbenzyl)-1,2,4-oxadiazole-3-carboxamide]	≤ 1 nM	500 to 10000 nM
Cc1cc(-c2cc(NC(=O)C3CC3)ncc2F)ccc1[C@@H](C)NC(=O)c1noc(C(C)(C)C)n1 [Compound 20, (R)-5-(tert-butyl)-N-(1-(4-(2-(cyclopropanecarboxamido)-5-fluoropyridin-4-yl)-2-methylphenyl)ethyl)-1,2,4-oxadiazole-3-carboxamide]	≤ 1 nM	≤ 100 nM
Cc1cc(-c2ccnc(NC(=O)C3CC3)c2)ccc1CNC(=O)c1ccn(C(C)(C)C)n1 [Compound 99, 1-(tert-butyl)-N-(4-(2-(cyclopropanecarboxamido)pyridin-4-yl)-2-methylbenzyl)-1H-pyrazole-3-carboxamide]	1 to 10 nM	500 to 10000 nM
CC(C)c1cc(-c2ccnc(NC(=O)C3CC3)c2)ccc1CNC(=O)c1noc(C(C)(C)C)n1 [Compound 56, 5-(tert-butyl)-N-(4-(2-(cyclopropanecarboxamido)pyridin-4-yl)-2-isopropylbenzyl)-1,2,4-oxadiazole-3-carboxamide]	1 to 10 nM	> 10000 nM
C[C@@H](NC(=O)c1nc(C(C)(C)C)no1)c1ccc(-c2ccnc(NC(=O)C3CC3)c2)cc1Cl [Compound 91, (R)-3-(tert-butyl)-N-(1-(2-chloro-4-(2-(cyclopropanecarboxamido)pyridin-4-yl)phenyl)ethyl)-1,2,4-oxadiazole-5-carboxamide]	≤ 1 nM	100 to 500 nM
CC(C)(C)c1nc(C(=O)N[C@@H]2CCN(CC(F)(F)F)Cc3cc(-c4ccnc(NC(=O)C5CC5)c4)ccc32)no1 [Compound 10, (R)-5-(tert-butyl)-N-(8-(2-(cyclopropanecarboxamido)pyridin-4-yl)-2-(2,2,2-trifluoroethyl)-2,3,4,5-tetrahydro-1H-benzo[c]azepin-5-yl)-1,2,4-oxadiazole-3-carboxamide]	≤ 1 nM	≤ 100 nM
CC1(c2nc(C(=O)NCc3ccc(-c4ccnc(NC(=O)C5CC5)c4)c(F)c3Cl)no2)CC1 [Compound 59, N-(2-chloro-4-(2-(cyclopropanecarboxamido)pyridin-4-yl)-3-fluorobenzyl)-5-(1-methylcyclopropyl)-1,2,4-oxadiazole-3-carboxamide]	≤ 1 nM	500 to 10000 nM
Cc1c(CNC(=O)c2cnc(C(C)(C)C)o2)ccc(-c2ccnc(NC(=O)C3CC3)c2)c1F [Compound 32, 2-(tert-butyl)-N-(4-(2-(cyclopropanecarboxamido)pyridin-4-yl)-3-fluoro-2-methylbenzyl)oxazole-5-carboxamide]	≤ 1 nM	500 to 10000 nM
